This is an account of results in US20250089715A1, “INSECTICIDAL MIXTURES” (ADAMA MAKHTESHIM LTD., priority 2021, published 2025).

In assay [1] the test system is Spodoptera littoralis larvae. Description: Leaf-dip feeding bioassay on Spodoptera littoralis larvae (castor bean leaves). The class given is in vivo. Conditions: for Lethal concentrations for Spodoptera littoralis, LD50 / Lethal concentrations for Spodoptera littoralis, LD90: early 3rd-instar larvae, treated castor bean leaves, probit analysis. On the procedure: (§1) The laboratory susceptible strain of S. littoralis is collected in 2000 from a cotton field in Bet She'an area ([…] part of Israel) and is reared on castor bean (Ricinus communis) leaves under standard rearing conditions of 27° C., 55% RH and 14 h photoperiod. Field strain of H. armigera was collected in June 2020 from cotton fields near Rehovot area and was reared on premixed diet (Ward's Stonefly Heliothis Diet, USA) under standard rearing conditions of 27° C., 55% RH and 14 h photoperiod.
Assays with S. littoralis larvae were done as described by Ishaaya et al. (1996, 2003). Castor bean leaves were dipped in various concentrations of the test compounds (and water as control), and were air dried for 2 h under controlled room conditions. The treated leaves were transferred into foam plastic (“Kalkar”) cups containing a layer of sawdust to avoid humidity. The treated leaves were offered to early 3rd-instar (12±1 mg) for 4-day feeding of the laboratory susceptible strain and for additional 4 days on untreated leaves. Larval mortality was determined and recorded on day 4 and 8 or as indicated, and larval weight gain (LWG) was determined on day 4 and 8 or as indicated.
(§2) To obtain a concentration-mortality line, at least three concentrations were used for most of the bioassays. LC values were estimated by probit analysis (POLO, 1987). Control mortality was corrected using Abbott's (1925) formula.
(§3) Firstly, all the compounds were assessed alone against the larvae, and then, binary mixtures of chlorantraniliprole with tau-fluvalinate were evaluated in different ratios.

Assay [2] deals with Helicoverpa armigera (Heliothis) larvae. The assay can be described thus: Leaf-dip bioassay on Helicoverpa armigera larvae (cotton leaves). To be noted: for Lethal concentrations for Helicoverpa armigera (Heliothis), LD50 / Lethal concentrations for Helicoverpa armigera (Heliothis), LD90: third instar larvae, treated cotton leaves, probit analysis. Format: in vivo. On the procedure:
as §1
Tender leaves of cotton were dipped in aqueous concentrations of a formulation or in water as control. After 15 seconds of dipping, the cotton leaves were then allowed to air dry for 2 h. Afterwards, Heliothis larvae (third instars, 8-10 mm), reared in a controlled growth room (27±2° C. and 50% RH with a photoperiod of 14:10 h light:dark) were put inside Petri dishes on treated cotton leaves; in addition, filter papers were also added to the dishes (to avoid too much moisture). The experiments were done on 5-10 larvae for each concentration and were repeated three times, on separate days.
Mortality of the larvae in comparison with the control was determined, two and five-six days after exposure to the formulations.
as §2, §3

Structures are written as SMILES.

Usually mortality stands for the share of the test organisms that died.

As to `CNC(=O)c1cc(Cl)cc(C)c1NC(=O)c1cc(Br)nn1-c1ncccc1Cl` [Chlorantraniliprole], the mortality at 0.05 ppm in assay [1] (Spodoptera littoralis, in Ricinus communis, 0.05 ppm, alone, read-out: S. littoralis mortality, %) worked out at 27%. In addition, the mortality at 0.1 ppm in assay [1] (Spodoptera littoralis, in Ricinus communis, 0.1 ppm, alone, read-out: S. littoralis mortality, %) is 48%. In assay [1], the “Lethal concentrations for Spodoptera littoralis, LD50” value is “LD50 = 0.1 ppm” and the “Lethal concentrations for Spodoptera littoralis, LD90” value is listed as “LD90 = 1 ppm”. In assay [2] (Helicoverpa armigera, 0.05 ppm, alone, read-out: H. armigera mortality, %), the mortality at 0.05 ppm stood at 18%. Moreover, in assay [2] (Helicoverpa armigera, 0.1 ppm, alone, read-out: H. armigera mortality, %), the mortality at 0.1 ppm stood at 40%. In assay [2], the “Lethal concentrations for Helicoverpa armigera (Heliothis), LD50” value was “LD50 ≥ 0.1 ppm” and the “Lethal concentrations for Helicoverpa armigera (Heliothis), LD90” value was “LD90 ≥ 1 ppm”.

`CC(C)[C@@H](Nc1ccc(C(F)(F)F)cc1Cl)C(=O)OC(C#N)c1cccc(Oc2ccccc2)c1` (stereo partly shown) [Tau-fluvalinate]: the mortality at 50 ppm in assay [1] (Spodoptera littoralis, in Ricinus communis, 50 ppm, alone, read-out: S. littoralis mortality, %) is 20%; in assay [2] (Helicoverpa armigera, 50 ppm, alone, read-out: H. armigera mortality, %) it was 30%. For the same compound, the mortality at 100 ppm came to 40% in assay [1] (Spodoptera littoralis, in Ricinus communis, 100 ppm, alone, read-out: S. littoralis mortality, %) and 45% in assay [2] (Helicoverpa armigera, 100 ppm, alone, read-out: H. armigera mortality, %). The “Lethal concentrations for Spodoptera littoralis, LD50” value in assay [1] was “LD50 ≥ 100 ppm”. For the same compound, the “Lethal concentrations for Spodoptera littoralis, LD90” value in assay [1] was “LD90 ≥ 500 ppm”. The “Lethal concentrations for Helicoverpa armigera (Heliothis), LD50” value in assay [2] is “LD50 ≥ 100 ppm”. In assay [2], the “Lethal concentrations for Helicoverpa armigera (Heliothis), LD90” value is “LD90 ≥ 500 ppm”.
